Tests used:
[1] = tested on: summer wheat (TRZAS; cv. Triso); test: Absolute action: reduction of damage by mesosulfuron-methyl on summer wheat, greenhouse post-emergence; type: in vivo; conditions: for Absolute reduction in herbicide damage (damage without safener minus damage with safener): mesosulfuron-methyl 20 g/ha; for Herbicide damage with compound of the formula (I): then mesosulfuron-methyl 20 g/ha, visual 0-100% scale, 14-21 days after application
Experimental: (§1) 2.1 Absolute Action of Selected Compounds of the Invention Using the Example of Reduction of Damage by Mesosulfuron-Methyl on Summer Wheat (TRZAS) The seeds of the crop plants to be treated are laid out in sandy loam in wood fiber or plastic pots (diameter ˜4 cm), covered with soil and grow in a greenhouse under good conditions for germination and growth. The trial plants were treated at the early leaf stage (BBCH10—BBCH12). In the course of this, the inventive compounds of the general formula (I) formulated in the form of wettable powders (WP) were sprayed onto the above-ground parts of the plants as an aqueous suspension with a water application rate corresponding to 800 l/ha with addition of wetting agent (e.g. 0.2% agrotin) in the specified dose. This was followed by the application of the herbicide. For this purpose, mesosulfuron-methyl, formulated in the form of water-dispersible granules (WG), was sprayed onto the above-ground parts of the plants in the form of an aqueous dispersion with a water application rate corresponding to 800 l/ha with addition of wetting agent (e.g. 0.2% agrotin) in a dose of 20 g/ha. The dose of the herbicide was chosen here such that it causes visually apparent damage (min. 30%, max. 75%) compared to untreated crop plants at the evaluation time on a control group of crop plants without safener treatment that were included in the same trial. After application, the plants were cultivated under good growth conditions in a greenhouse. The damage was visually assessed 14-21 days after application. The damage effect was assessed visually on a scale of 0-100% by comparison with untreated control plants, and averaged over 2-3 repeats per treatment. Examples: • 0%=no noticeable effect compared to the untreated plant • 20%=the treated plant population has 20% damage compared to the untreated control population (e.g. growth height, leaf damage, etc.) • 100%=treated plants completely damaged/killed.

[2] = tested on: summer barley (HORVS; cv. Montoya); test: Absolute action: reduction of damage by mesosulfuron-methyl on summer barley, greenhouse post-emergence; type: in vivo; conditions: for Absolute reduction in damage (difference): mesosulfuron-methyl 20 g/ha, damage without minus with safener; for Herbicide damage with compound of the formula (I) (%): then mesosulfuron-methyl 20 g/ha, visual 0-100% scale, 14-21 days after application
Experimental: as §1, with “2.2 Absolute Action” for “2.1 Absolute Action”, “on Summer Barley (HORVS) The seeds” for “on Summer Wheat (TRZAS) The seeds”, “treated are aid out in” for “treated are laid out in”, “soil and grown in a” for “soil and grow in a”, “leaf stage (BBCE10-BBCH12). In the” for “leaf stage (BBCH10—BBCH12). In the”, “control population (e.g.: growth height,” for “control population (e.g. growth height,”

Row | Structure (SMILES) | Absolute reduction in herbicide damage (damage without safener minus damage with safener) ([1]; safener 125 g a.i./ha) [%] | Herbicide damage with compound of the formula (I) ([1]; safener 125 g a.i./ha) [%] | Absolute reduction in herbicide damage (damage without safener minus damage with safener) ([1]; safener 500 g a.i./ha) [%] | Herbicide damage with compound of the formula (I) ([1]; safener 500 g a.i./ha) [%] | Absolute reduction in damage (difference) ([2]; safener 125 g a.i./ha) [%] | Herbicide damage with compound of the formula (I) (%) ([2]; safener 125 g a.i./ha) | Absolute reduction in damage (difference) ([2]; safener 500 g a.i./ha) [%] | Herbicide damage with compound of the formula (I) (%) ([2]; safener 500 g a.i./ha)
1 | COC(=O)COc1nc(-c2ccc(Cl)cc2Cl)n(-c2ccc(F)cc2F)n1 [I.43-38] | 30 | 33 | 33 | 30 | 26 | 37 |  | 
2 | COC(=O)COc1nc(-c2ccc(Cl)cc2Cl)n(-c2ccc(Cl)cc2F)n1 [I.43-49, Methyl {[1-(4-chloro-2-fluorophenyl)-5-(2,4-dichlorophenyl)-1H-1,2,4-triazol-3-yl]oxy}acetate] | 36 | 27 | 40 | 23 | 30 | 33 | 33 | 30
3 | CCOC(=O)COc1nc(-c2ccc(Cl)cc2Cl)n(-c2ccc(Cl)cc2Cl)n1 [I.44-32] | 53 | 10 | 56 | 7 | 33 | 27 | 47 | 13
4 | CCOC(=O)COc1nc(-c2ccc(Cl)cc2Cl)n(-c2ccc(F)cc2F)n1 [I.44-38] | 53 | 10 | 60 | 3 | 43 | 17 | 50 | 10
5 | CCOC(=O)COc1nc(-c2ccc(Cl)cc2Cl)n(-c2ccc(Cl)cc2F)n1 [I.44-49] | 43 | 10 | 46 | 7 | 30 | 30 |  | 
6 | O=C(O)COc1nc(-c2ccc(Cl)cc2Cl)n(-c2ccc(F)cc2F)n1 [I.45-38] | 33 | 30 | 43 | 20 | 30 | 30 | 40 | 20
7 | O=C(O)COc1nc(-c2ccc(Cl)cc2Cl)n(-c2ccc(Cl)cc2F)n1 [I.45-49, {[1-(4-Chloro-2-fluorophenyl)-5-(2,4-dichlorophenyl)-1H-1,2,4-triazol-3-yl]oxy}acetic acid] | 20 | 43 | 23 | 40 | 20 | 40 | 30 | 30
8 | COC(=O)COc1nc(-c2ccc(Cl)cc2F)n(-c2ccccc2F)n1 [I.46-2] | 46 | 7 |  |  | 23 | 37 | 33 | 27
9 | COC(=O)COc1nc(-c2ccc(Cl)cc2F)n(-c2ccc(Cl)cc2Cl)n1 [I.46-32] | 43 | 10 | 46 | 7 | 27 | 33 | 33 | 27
10 | COC(=O)COc1nc(-c2ccc(Cl)cc2F)n(-c2ccc(F)cc2F)n1 [I.46-38] | 33 | 30 |  |  | 40 | 23 | 43 | 20
11 | COC(=O)COc1nc(-c2ccc(Cl)cc2F)n(-c2ccc(Cl)cc2F)n1 [I.46-49] | 43 | 10 |  |  | 40 | 20 | 43 | 17
12 | CCOC(=O)COc1nc(-c2ccc(Cl)cc2F)n(-c2ccc(Cl)cc2Cl)n1 [I.47-32] | 34 | 23 | 44 | 13 |  |  | 47 | 10
13 | CCOC(=O)COc1nc(-c2ccc(Cl)cc2F)n(-c2ccc(F)cc2F)n1 [I.47-38] | 27 | 13 |  |  | 40 | 17 | 47 | 10
14 | CCOC(=O)COc1nc(-c2ccc(Cl)cc2F)n(-c2ccc(Cl)cc2F)n1 [I.47-49] | 30 | 30 |  |  | 50 | 10 |  | 
15 | O=C(O)COc1nc(-c2ccc(Cl)cc2F)n(-c2ccccc2F)n1 [I.48-2] | 27 | 3 |  |  | 20 | 27 | 27 | 20
16 | O=C(O)COc1nc(-c2ccc(Cl)cc2F)n(-c2ccc(Cl)cc2Cl)n1 [I.48-32] | 30 | 30 | 37 | 23 | 40 | 20 | 50 | 10

Source: patent publication US12583826B2, “[(1,5-diphenyl-1H-1,2,4-triazol-3-yl)oxy]acetic acid derivatives and salts thereof, crop protection compositions comprising them, methods for producing them and use thereof as safeners” (Bayer Aktiengesellschaft, priority 2019, dated 2026)
